Test results reported in patent US7763615B2, “Ecteinascidin analogs for use as antitumour agents” (priority 2001, dated 2010).
Read-outs that look alike come from different tables or passages of the source.

Key:
HT29 = experiment: cells; format: cell-based
From the text: (§1) The finality of these assays is to interrupt the growth of a “in vitro” tumor cell culture by means of a continued exhibition of the cells to the sample to be testing.
(§2) A colorimetric type of assay, using sulphorhodamine B (SRB) reaction has been adapted for a quantitative measurement of cell growth and viability [following the technique described by Philip Skehan, et al. (1990), New colorimetric cytotoxicity assay for anticancer drug screening, J. Natl. Cancer Inst., 82:1107-1112]
(§3) This form of the assay employs 96 well cell culture microplates of 9 mm diameter (Faircloth, 1988; Mosmann, 1983). Most of the cell lines are obtained from American Type Culture Collection (ATCC) derived from different human cancer types.
(§4) Cells are maintained in RPMI 1640 10% FBS, supplemented with 0.1 g/l penicillin and 0.1 g/l streptomycin sulphate and then incubated at 37° C., 5% CO2 and 98% humidity. For the experiments, cells were harvested from subconfluent cultures using trypsin and resuspended in fresh medium before plating.
(§5) Cells are seeded in 96 well microtiter plates, at 5×10^3 cells per well in aliquots of 195 μl medium, and they are allowed to attach to the plate surface by growing in drug free medium for 18 hours. Afterward, samples are added in aliquots of 5 μl in a ranging from 10 to 10^−8 μg/ml, dissolved in DMSO/EtOH/PBS (0.5:0.5:99). After 48 hours exposure, the antitumor effect are measured by the SRB methodology: cells are fixed by adding 50 μl of cold 50% (wt/vol) trichloroacetic acid (TCA) and incubating for 60 minutes at 4° C. Plates are washed with deionized water and dried. One hundred μl of SRB solution (0.4% wt/vol in 1% acetic acid) is added to each microtiter well and incubated for 10 minutes at room temperature. Unbound SRB is removed by washing with 1% acetic acid. Plates are air dried and bound stain is solubilized with Tris buffer. Optical densities are read on a automated spectrophotometric plate reader at a single wavelength of 490 nm.
(§6) The values for mean+/− SD of data from triplicate wells are calculated. Some parameters for cellular responses can be calculated: GI=growth inhibition, TGI=total growth inhibition (cytostatic effect) and LC=cell killing (cytotoxic effect).

A549 = experiment: cells; format: cell-based; details: for GI50: read-out: GI50; for IC (TGI): read-out: TGI
From the text: as §1, §2, §3, §4, §5, §6

[1] = Homo sapiens, HT-29, 48 h, HT29, 48 hours exposure, SRB
[2] = Homo sapiens, HT-29, 48 h, HT29, 48 hours exposure, SRB, read-out: LC50 (the source's name)
[3] = Homo sapiens, A549, 48 h, A549, 48 hours exposure, SRB
[4] = Homo sapiens, A549, 48 h, A549, 48 hours exposure, SRB, read-out: LC50 (the source's name)
[5] = A549, 48 hours exposure, SRB, read-out: LC50 (the source's name)

Compound | GI50 (HT29; [1]) [nM] | IC (TGI) (HT29; [1]) [nM] | CC50 (HT29; [2]) [nM] | GI50 (A549; [3]) [nM] | CC50 (A549; [4]) [nM] | IC (TGI) (A549; [3]) [nM] | GI50 (HT29; HT29, 48 hours exposure, SRB) [nM] | TGI (HT29; HT29, 48 hours exposure, SRB) [Molar] | TGI (A549; A549, 48 hours exposure, SRB) [Molar] | GI50 (A549; A549, 48 hours exposure, SRB) [nM] | CC50 (A549; [5]) [nM] | CC50 (HT29; HT29, 48 hours exposure, SRB, read-out: LC50 (the source's name)) [nM] | CC50 (HT29; Homo sapiens, HT-29, 48 h, read-out: LC50, HT29, 48 hours exposure, SRB) [nM] | CC50 (A549; Homo sapiens, A549, 48 h, read-out: LC50, A549, 48 hours exposure, SRB) [nM]
COc1c(C)cc2c(c1O)[C@@H]1C3[C@@H]4SC[C@]5(NCCc6c5[nH]c5ccc(F)cc65)C(=O)COC[C@@H](c5c6c(c(C)c(OC(C)=O)c54)OCO6)N3[C@@H](C#N)[C@H](C2)N1C (stereo partly drawn) [Compound 10] | 40.3 | 12800 | 12800 | 39.1 | 12800 | 128 | – | – | – | – | – | – | – | –
COc1c(C)cc2c(c1O)[C@@H]1C3[C@@H]4SC[C@]5(C(=O)COC[C@@H](c6c7c(c(C)c(OC(C)=O)c64)OCO7)N3[C@@H](C#N)[C@H](C2)N1C)c1[nH]c2ccccc2c1CCN5C (stereo partly drawn) [Compound 15] | – | – | 13100 | – | – | – | 4.16 | 1.31E−08 | 1.31E−08 | 4.78 | 1270 | – | – | –
COc1c(C)cc2c(c1O)[C@@H]1C3[C@@H]4SC[C@]5(NCCc6c5[nH]c5c(OCc7ccccc7)cccc65)C(=O)COC[C@@H](c5c6c(c(C)c(OC(C)=O)c54)OCO6)N3[C@@H](C#N)[C@H](C2)N1C (stereo partly drawn) [Compound 3] | 230 | 230 | 57500 | 345 | 57500 | 3450 | – | – | – | – | – | – | – | –
COc1c(C)cc2c(c1OC(=O)OC(C)(C)C)[C@@H]1C3[C@@H]4SC[C@]5(NCCc6c5[nH]c5ccccc65)C(=O)COC[C@@H](c5c6c(c(C)c(OC(C)=O)c54)OCO6)N3[C@@H](C#N)[C@H](C2)N1C (stereo partly drawn) [Compound 21] | 1180 | 11600 | 11600 | 758 | 11600 | 6990 | – | – | – | – | – | – | – | –
COc1c(C)cc2c(c1O)[C@@H]1C3[C@@H]4SC[C@]5(NCCc6c5[nH]c5c(C)cccc65)C(=O)COC[C@@H](c5c6c(c(C)c(OC(C)=O)c54)OCO6)N3[C@@H](C#N)[C@H](C2)N1C (stereo partly drawn) [Compound 11] | 30.9 | 129 | 12900 | 18.9 | 129 | 50 | – | – | – | – | – | – | – | –
C=COC(=O)Oc1c(OC)c(C)cc2c1[C@@H]1C3[C@@H]4SC[C@]5(NCCc6c5[nH]c5ccccc65)C(=O)COC[C@@H](c5c6c(c(C)c(OC(C)=O)c54)OCO6)N3[C@@H](C#N)[C@H](C2)N1C (stereo partly drawn) [Compound 22] | 120 | 5700 | 12000 | 39.3 | 12000 | 120 | – | – | – | – | – | – | – | –
COc1c(C)cc2c(c1O)[C@@H]1C3[C@@H]4SC[C@]5(NC(C)Cc6c5[nH]c5ccc(F)cc65)C(=O)COC[C@@H](c5c6c(c(C)c(OC(C)=O)c54)OCO6)N3[C@@H](C#N)[C@H](C2)N1C (stereo partly drawn) [Compound 17] | – | – | – | – | – | – | 22.2 | 1.28E−08 | 4.41E−08 | 5.39 | 6670 | 12800 | – | –
C=COC(=O)Oc1c(OC)c(C)cc2c1[C@@H]1C3[C@@H]4SC[C@]5(C(=O)COC[C@@H](c6c7c(c(C)c(OC(C)=O)c64)OCO7)N3[C@@H](C#N)[C@H](C2)N1C)c1[nH]c2ccccc2c1CCN5C(=O)OC=C (stereo partly drawn) [Compound 23] | 247 | 11100 | – | 118 | – | 1260 | – | – | – | – | – | – | 11100 | 11100
COc1c(C)cc2c(c1O)[C@@H]1C3[C@@H]4SC[C@]5(NCCc6c5[nH]c5cc(F)ccc65)C(=O)COC[C@@H](c5c6c(c(C)c(OC(C)=O)c54)OCO6)N3[C@@H](C#N)[C@H](C2)N1C (stereo partly drawn) [Compound 7] | 63.9 | 63.9 | 1280 | 767 | 1280 | 128 | – | – | – | – | – | – | – | –
COc1c(C)cc2c(c1O)[C@@H]1C3[C@@H]4SC[C@]5(C(=O)COC[C@@H](c6c7c(c(C)c(OC(C)=O)c64)OCO7)N3[C@@H](C#N)[C@H](C2)N1C)c1[nH]c2ccc(O)cc2c1CCN5C (stereo partly drawn) [Compound 8] | 2.52 | 2.52 | 5040 | 2.52 | 12600 | 10.1 | – | – | – | – | – | – | – | –
COc1c(C)cc2c(c1O)[C@@H]1C3[C@@H]4SC[C@]5(NCCc6c5[nH]c5ccc(OCc7ccccc7)cc65)C(=O)COC[C@@H](c5c6c(c(C)c(OC(C)=O)c54)OCO6)N3[C@@H](C#N)[C@H](C2)N1C (stereo partly drawn) [Compound 4] | 2300 | 2300 | 11500 | 2300 | 11500 | 6900 | – | – | – | – | – | – | – | –
